# From publication doi:10.1101/2023.11.24.568596v1 (biorxiv, 2023)
# Tests used:
# Settings in all cases: binder
# [1] = molecular target: Wnk1 (Homo sapiens, UniProt Q9H4A3)
# [2] = molecular target: FES (Homo sapiens, UniProt P07332)
# [3] = molecular target: PIM1 (Homo sapiens, UniProt P11309)
# [4] = molecular target: T1, MAP3K5 (Homo sapiens, UniProt Q99683)
# T1 sequence (Q99683 1-1374): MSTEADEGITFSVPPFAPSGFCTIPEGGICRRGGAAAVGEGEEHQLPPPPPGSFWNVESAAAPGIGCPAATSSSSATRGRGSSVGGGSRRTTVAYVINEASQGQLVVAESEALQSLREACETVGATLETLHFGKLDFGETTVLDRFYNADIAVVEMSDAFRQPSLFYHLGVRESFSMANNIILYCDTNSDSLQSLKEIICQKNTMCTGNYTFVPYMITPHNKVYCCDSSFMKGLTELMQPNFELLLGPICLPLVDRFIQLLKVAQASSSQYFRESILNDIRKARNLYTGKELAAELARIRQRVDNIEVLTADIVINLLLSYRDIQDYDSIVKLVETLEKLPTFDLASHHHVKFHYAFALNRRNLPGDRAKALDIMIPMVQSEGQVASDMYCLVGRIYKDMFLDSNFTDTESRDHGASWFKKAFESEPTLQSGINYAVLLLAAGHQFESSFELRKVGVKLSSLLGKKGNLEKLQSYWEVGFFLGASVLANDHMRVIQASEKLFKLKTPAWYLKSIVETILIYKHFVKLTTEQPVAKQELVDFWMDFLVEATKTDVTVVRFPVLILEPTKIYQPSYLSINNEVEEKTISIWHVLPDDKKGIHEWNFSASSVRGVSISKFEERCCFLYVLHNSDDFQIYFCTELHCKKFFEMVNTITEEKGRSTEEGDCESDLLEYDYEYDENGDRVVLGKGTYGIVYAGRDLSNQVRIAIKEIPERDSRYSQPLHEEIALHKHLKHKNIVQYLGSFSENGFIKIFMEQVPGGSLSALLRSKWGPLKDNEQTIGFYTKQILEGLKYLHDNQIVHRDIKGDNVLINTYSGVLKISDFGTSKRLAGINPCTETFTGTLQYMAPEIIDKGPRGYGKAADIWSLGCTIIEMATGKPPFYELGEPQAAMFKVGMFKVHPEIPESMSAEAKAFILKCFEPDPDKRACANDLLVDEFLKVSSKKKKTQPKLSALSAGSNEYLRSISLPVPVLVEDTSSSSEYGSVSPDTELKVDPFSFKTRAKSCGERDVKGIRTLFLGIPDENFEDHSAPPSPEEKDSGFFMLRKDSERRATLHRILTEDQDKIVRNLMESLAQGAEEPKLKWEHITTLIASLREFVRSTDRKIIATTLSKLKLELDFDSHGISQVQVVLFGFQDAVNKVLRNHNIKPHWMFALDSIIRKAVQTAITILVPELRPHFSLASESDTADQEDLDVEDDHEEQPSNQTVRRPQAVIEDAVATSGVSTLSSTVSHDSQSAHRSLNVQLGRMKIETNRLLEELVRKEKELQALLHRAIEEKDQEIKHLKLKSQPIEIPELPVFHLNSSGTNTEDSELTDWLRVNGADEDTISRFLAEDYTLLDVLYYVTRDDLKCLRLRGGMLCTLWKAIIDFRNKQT
# [5] = molecular target: MAPKAPK2 (Homo sapiens, UniProt P49137)
# [6] = molecular target: CLK1 (Homo sapiens, UniProt P49759)
# CLK1, sequence (P49759 whole entry): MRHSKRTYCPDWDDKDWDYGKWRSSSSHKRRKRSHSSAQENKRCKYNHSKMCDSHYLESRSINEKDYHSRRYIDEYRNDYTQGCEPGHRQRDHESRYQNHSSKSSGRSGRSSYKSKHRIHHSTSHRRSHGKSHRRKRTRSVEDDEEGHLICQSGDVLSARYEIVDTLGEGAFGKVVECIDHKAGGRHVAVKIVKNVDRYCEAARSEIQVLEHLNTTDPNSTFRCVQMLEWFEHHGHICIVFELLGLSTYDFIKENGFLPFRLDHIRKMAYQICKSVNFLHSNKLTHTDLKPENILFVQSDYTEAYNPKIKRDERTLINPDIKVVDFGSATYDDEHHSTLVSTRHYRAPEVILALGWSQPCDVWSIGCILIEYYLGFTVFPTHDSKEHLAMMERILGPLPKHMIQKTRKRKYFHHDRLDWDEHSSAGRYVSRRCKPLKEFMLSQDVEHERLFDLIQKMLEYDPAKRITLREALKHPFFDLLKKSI
# [7] = molecular target: MELK (Homo sapiens, UniProt Q14680)
# MELK, sequence (Q14680 whole entry): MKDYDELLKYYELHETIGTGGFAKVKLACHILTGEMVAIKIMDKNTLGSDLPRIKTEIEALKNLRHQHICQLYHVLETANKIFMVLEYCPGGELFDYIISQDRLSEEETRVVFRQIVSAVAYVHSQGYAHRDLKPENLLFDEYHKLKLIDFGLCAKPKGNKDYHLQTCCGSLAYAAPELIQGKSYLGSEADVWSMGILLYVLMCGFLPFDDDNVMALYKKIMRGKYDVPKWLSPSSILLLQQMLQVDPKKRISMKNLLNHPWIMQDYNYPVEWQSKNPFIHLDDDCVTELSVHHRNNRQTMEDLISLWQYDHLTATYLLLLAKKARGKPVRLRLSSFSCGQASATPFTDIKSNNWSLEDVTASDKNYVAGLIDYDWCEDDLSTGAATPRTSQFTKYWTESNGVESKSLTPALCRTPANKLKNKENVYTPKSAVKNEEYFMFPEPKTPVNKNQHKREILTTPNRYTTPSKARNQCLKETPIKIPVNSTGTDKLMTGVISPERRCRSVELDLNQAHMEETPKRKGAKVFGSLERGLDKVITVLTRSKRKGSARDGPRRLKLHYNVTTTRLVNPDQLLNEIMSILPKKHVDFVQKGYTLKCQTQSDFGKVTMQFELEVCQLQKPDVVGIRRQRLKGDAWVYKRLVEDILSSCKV
# [8] = molecular target: HIPK2 (Homo sapiens, UniProt Q9H2X6)
# HIPK2, sequence (Q9H2X6 whole entry): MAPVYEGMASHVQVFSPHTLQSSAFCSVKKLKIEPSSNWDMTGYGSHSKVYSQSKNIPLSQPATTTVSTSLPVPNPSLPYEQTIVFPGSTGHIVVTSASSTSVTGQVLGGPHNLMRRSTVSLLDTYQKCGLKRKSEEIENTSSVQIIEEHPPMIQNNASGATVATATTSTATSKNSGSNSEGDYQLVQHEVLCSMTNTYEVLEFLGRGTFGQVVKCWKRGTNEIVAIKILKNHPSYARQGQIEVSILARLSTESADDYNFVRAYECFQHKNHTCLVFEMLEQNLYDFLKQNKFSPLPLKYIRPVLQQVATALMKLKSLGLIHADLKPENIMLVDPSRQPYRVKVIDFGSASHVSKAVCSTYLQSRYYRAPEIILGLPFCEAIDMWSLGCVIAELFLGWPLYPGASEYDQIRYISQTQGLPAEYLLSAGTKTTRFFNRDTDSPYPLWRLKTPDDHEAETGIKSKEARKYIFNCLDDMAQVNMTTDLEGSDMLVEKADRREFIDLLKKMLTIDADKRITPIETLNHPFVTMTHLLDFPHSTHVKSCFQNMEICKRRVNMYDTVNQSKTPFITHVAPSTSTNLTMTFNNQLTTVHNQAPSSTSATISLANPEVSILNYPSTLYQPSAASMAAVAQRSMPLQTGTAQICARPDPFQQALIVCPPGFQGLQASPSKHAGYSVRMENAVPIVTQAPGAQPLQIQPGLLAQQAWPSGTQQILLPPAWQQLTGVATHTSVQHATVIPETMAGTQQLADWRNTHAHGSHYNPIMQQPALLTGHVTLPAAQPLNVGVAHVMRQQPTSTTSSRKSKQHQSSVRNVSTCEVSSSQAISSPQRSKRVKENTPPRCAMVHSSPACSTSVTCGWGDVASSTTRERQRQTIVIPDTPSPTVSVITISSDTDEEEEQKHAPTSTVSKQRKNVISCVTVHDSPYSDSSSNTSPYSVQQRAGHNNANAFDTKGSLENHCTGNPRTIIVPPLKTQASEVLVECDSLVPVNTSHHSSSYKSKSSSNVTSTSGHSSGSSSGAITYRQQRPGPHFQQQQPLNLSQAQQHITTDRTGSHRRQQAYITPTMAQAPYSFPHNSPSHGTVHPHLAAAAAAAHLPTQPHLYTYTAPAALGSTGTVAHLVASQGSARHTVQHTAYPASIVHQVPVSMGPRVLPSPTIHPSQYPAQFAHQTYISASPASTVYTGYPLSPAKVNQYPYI
# [9] = molecular target: PAK4 (Homo sapiens, UniProt O96013)
# [10] = molecular target: DAPK3 (Homo sapiens, UniProt O43293)
# [11] = molecular target: JNK3 (Homo sapiens, UniProt P53779)
# [12] = molecular target: CK2a2 (Homo sapiens, UniProt P19784)
# CK2a2, sequence (P19784 whole entry): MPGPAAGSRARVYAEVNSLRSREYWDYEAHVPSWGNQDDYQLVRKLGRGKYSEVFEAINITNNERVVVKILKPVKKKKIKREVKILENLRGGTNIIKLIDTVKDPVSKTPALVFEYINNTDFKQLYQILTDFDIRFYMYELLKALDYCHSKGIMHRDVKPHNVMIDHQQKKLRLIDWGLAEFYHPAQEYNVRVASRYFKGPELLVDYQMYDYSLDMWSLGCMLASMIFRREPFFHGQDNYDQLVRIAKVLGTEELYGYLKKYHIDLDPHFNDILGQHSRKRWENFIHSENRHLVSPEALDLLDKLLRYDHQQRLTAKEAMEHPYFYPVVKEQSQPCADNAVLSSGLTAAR
# [13] = molecular target: T2, PHKG2 (Homo sapiens, UniProt P15735)
# T2 sequence (P15735 1-406): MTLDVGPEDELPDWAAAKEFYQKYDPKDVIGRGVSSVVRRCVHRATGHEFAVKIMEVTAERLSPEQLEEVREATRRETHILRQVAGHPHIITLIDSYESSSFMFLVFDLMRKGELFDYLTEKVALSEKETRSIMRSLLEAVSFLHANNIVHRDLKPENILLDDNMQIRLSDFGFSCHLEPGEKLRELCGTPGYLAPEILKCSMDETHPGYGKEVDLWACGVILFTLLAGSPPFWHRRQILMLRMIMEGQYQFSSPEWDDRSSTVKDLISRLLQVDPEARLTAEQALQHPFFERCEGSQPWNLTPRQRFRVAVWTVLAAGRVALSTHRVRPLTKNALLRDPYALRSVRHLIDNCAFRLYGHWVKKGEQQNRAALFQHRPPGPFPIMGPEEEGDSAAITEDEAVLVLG
# Wnk1, sequence (Q9H4A3 whole entry): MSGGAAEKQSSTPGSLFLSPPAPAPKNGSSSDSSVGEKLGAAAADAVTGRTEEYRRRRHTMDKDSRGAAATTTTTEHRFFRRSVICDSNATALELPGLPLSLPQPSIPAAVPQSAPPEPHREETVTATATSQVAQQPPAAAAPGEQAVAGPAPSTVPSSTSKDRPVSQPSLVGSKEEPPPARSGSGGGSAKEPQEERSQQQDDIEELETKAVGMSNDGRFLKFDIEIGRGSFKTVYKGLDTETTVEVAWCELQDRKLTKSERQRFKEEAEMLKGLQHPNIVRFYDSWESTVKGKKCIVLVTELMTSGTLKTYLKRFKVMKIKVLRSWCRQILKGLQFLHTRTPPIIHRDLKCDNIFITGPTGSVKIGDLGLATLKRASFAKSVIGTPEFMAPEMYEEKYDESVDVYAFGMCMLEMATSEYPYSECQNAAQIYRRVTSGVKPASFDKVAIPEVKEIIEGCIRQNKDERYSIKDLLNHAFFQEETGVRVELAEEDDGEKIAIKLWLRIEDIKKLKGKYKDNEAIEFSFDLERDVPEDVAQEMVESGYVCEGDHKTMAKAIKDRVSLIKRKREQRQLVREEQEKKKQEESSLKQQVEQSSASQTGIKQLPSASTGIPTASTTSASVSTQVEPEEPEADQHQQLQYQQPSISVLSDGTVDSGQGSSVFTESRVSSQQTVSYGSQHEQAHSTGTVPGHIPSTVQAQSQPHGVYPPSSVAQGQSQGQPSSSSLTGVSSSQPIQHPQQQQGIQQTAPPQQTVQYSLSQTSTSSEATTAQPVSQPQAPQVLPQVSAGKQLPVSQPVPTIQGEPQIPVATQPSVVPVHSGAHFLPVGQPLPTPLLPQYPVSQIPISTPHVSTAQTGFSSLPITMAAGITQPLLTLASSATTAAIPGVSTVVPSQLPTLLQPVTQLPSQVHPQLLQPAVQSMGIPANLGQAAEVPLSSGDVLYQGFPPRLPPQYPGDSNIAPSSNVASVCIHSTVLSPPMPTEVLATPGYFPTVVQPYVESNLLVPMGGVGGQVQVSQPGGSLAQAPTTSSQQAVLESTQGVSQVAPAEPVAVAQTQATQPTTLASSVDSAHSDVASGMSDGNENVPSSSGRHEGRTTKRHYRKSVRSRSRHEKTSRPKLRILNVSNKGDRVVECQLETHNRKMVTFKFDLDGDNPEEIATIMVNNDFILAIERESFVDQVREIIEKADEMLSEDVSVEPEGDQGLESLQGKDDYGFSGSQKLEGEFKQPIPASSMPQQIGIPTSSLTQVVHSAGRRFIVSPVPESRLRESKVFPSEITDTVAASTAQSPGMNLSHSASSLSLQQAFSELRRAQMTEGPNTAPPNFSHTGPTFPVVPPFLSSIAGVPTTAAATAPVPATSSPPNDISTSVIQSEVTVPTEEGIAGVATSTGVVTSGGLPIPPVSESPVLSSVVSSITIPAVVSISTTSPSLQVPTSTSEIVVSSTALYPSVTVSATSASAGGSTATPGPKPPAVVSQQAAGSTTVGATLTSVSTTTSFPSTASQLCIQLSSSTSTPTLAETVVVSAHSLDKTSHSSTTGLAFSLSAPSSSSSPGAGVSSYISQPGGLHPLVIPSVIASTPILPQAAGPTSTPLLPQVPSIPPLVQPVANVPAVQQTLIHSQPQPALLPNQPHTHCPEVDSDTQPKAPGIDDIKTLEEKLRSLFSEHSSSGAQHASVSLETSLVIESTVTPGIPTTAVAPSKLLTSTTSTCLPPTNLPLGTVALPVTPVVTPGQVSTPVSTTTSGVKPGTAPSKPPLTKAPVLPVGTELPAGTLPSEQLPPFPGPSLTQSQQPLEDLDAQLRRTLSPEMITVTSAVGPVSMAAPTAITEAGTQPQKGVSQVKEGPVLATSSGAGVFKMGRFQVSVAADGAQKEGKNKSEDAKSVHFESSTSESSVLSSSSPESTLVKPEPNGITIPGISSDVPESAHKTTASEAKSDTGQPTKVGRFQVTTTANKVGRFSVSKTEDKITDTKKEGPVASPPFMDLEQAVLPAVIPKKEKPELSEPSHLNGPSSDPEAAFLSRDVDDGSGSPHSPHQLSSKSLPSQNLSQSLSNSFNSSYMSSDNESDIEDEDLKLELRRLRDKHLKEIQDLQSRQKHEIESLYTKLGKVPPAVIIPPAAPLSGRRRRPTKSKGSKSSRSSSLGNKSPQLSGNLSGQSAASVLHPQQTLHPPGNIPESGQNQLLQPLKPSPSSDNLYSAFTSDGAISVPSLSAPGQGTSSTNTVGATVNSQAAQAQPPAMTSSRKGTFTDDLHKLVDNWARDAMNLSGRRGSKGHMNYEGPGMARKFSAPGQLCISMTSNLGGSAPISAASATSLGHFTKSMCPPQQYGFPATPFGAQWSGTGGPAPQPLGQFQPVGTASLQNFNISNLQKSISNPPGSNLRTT
compound,measurement,setting,value
"COc1cc(N2CCN(C)CC2)ccc1Nc1ncc2cc(-c3ccc(-c4cccc(C)n4)cc3Cl)c(=O)n(CCCCN)c2n1 [compound 36, 8-(4-Aminobutyl)-6-(2-chloro-4-(6-methylpyridin-2-yl)phenyl)-2-((2-methoxy-4-(4-methylpiperazin-1-yl)phenyl)amino)pyrido[2,3-d]pyrimidin-7(8H)-one]",dTm 36,[1],1.5 °C
same,dTm 36,[2],9.0 °C
same,dTm 36,[3],-0.1 °C
same,dTm 36,[4],10.1 °C
same,dTm 36,[5],-0.1 °C
same,dTm 36,[6],-0.9 °C
same,dTm 36,[7],7.4 °C
same,dTm 36,[8],0.3 °C
same,dTm 36,[9],3.9 °C
same,dTm 36,[10],1.6 °C
same,dTm 36,[11],1.1 °C
same,dTm 36,[12],-0.5 °C
same,dTm 36,[13],8.0 °C
"COc1cc(N2CCOCC2)ccc1Nc1ncc2cc(-c3ccc(-c4cccc(C)n4)cc3Cl)c(=O)n(CCCCN)c2n1 [compound 35, 8-(4-Aminobutyl)-6-(2-chloro-4-(6-methylpyridin-2-yl)phenyl)-2-((2-methoxy-4-morpholino-phenyl)amino)pyrido[2,3-d]pyrimidin-7(8H)-one]",dTm 35,[1],2.7 °C
same,dTm 35,[2],8.3 °C
same,dTm 35,[3],-0.9 °C
same,dTm 35,[4],12.2 °C
same,dTm 35,[5],-0.6 °C
same,dTm 35,[6],-1.6 °C
same,dTm 35,[7],7.5 °C
same,dTm 35,[8],0.1 °C
same,dTm 35,[9],4.1 °C
same,dTm 35,[10],3.2 °C
same,dTm 35,[11],2.3 °C
same,dTm 35,[12],0.1 °C
same,dTm 35,[13],8.8 °C
"Cc1cccc(-c2ccc(-c3cc4cnc(Nc5ccc(F)c(CO)c5)nc4n(CCCCN)c3=O)c(Cl)c2)n1 [compound 33, 8-(4-Aminobutyl)-6-(2-chloro-4-(6-methylpyridin-2-yl)phenyl)-2-((4-fluoro-3-(hydroxymethyl)phenyl)amino)pyrido[2,3-d]pyrimidin-7(8H)-one]",dTm 33,[1],3.3 °C
same,dTm 33,[2],8.9 °C
same,dTm 33,[3],3.3 °C
same,dTm 33,[4],14.1 °C
same,dTm 33,[5],-0.5 °C
same,dTm 33,[6],-0.2 °C
same,dTm 33,[7],6.4 °C
same,dTm 33,[8],2.0 °C
same,dTm 33,[9],8.2 °C
same,dTm 33,[10],1.9 °C
same,dTm 33,[11],5.2 °C
same,dTm 33,[12],-1.2 °C
same,dTm 33,[13],6.2 °C
"COc1ccc(O)c(Nc2ncc3cc(-c4ccc(-c5cccc(C)n5)cc4Cl)c(=O)n(CCCCN)c3n2)c1 [compound 34, 8-(4-Aminobutyl)-6-(2-chloro-4-(6-methylpyridin-2-yl)phenyl)-2-((2-hydroxy-5-methoxy-phenyl)amino)pyrido[2,3-d]pyrimidin-7(8H)-one]",dTm 34,[1],0.8 °C
same,dTm 34,[2],7.6 °C
same,dTm 34,[3],2.7 °C
same,dTm 34,[4],10.3 °C
same,dTm 34,[5],-0.1 °C
same,dTm 34,[6],-0.3 °C
same,dTm 34,[7],3.3 °C
same,dTm 34,[8],0.5 °C
same,dTm 34,[9],3.0 °C
same,dTm 34,[10],1.5 °C
same,dTm 34,[11],3.0 °C
same,dTm 34,[12],0.1 °C
same,dTm 34,[13],3.5 °C
